One data set addresses Histone deacetylase. The data set can be described thus: Inhibition of HDAC in human HeLa nuclear extracts using fluorometric substrate incubated for 30 mins by fluorescence plate reader analysis. The class given is cell-based.
The next data set addresses Histone deacetylase 3 (Homo sapiens, UniProt O15379). The data set can be described thus: Inhibition of recombinant human His-tagged HDAC3 expressed in baculovirus insect cells using Ac-Leu-Gly-Lys (Ac)-AMC as substrate preincubated for 5 mins followed by substrate addition and measured after 30 mins by fluorescence microtiter plate reader assay.
Data set [1] has as its target T1, Protein deacetylase HDAC6 (Homo sapiens, UniProt Q9UBN7).
T1 sequence (Q9UBN7 whole entry): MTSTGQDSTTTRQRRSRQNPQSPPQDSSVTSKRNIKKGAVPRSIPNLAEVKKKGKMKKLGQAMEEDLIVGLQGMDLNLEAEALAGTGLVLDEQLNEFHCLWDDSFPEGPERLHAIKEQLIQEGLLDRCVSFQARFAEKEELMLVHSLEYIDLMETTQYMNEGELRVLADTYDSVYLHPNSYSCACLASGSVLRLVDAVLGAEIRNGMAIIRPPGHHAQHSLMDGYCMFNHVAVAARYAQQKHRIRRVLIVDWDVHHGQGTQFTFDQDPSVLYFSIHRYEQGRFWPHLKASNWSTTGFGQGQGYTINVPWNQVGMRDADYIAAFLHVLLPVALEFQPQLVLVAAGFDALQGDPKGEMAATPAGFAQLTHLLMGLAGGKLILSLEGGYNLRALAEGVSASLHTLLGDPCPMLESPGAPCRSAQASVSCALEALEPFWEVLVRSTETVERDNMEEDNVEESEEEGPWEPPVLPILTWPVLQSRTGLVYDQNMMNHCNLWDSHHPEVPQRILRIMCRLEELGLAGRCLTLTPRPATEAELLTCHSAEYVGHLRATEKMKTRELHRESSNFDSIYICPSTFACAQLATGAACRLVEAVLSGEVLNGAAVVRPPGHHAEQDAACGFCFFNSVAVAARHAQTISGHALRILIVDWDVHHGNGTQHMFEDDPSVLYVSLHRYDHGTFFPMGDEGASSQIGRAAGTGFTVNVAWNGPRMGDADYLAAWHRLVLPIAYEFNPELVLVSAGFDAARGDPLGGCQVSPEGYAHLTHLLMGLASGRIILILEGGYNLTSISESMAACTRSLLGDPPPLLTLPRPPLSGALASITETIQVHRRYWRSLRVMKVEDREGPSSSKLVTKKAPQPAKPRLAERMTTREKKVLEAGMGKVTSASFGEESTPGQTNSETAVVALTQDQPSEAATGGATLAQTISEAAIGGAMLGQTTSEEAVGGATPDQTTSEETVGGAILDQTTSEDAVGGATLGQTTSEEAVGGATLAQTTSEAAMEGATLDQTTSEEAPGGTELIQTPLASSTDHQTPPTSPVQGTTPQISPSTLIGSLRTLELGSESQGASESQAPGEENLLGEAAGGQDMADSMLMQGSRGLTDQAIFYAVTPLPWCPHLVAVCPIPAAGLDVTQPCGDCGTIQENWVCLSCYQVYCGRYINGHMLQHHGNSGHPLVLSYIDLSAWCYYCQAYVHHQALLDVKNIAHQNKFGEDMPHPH
The data set can be described thus: Inhibition of recombinant human N-terminal GST tagged HDAC6 expressed in baculovirus infected Sf9 insect cells using Ac-Leu-Gly-Lys (Ac)-AMC as substrate preincubated for 5 mins followed by substrate addition and measured after 30 mins by fluorescence microtiter plate reader assay.

The next data set deals with T2, Histone deacetylase 8 (Homo sapiens, UniProt Q9BY41).
T2 sequence (Q9BY41 whole entry): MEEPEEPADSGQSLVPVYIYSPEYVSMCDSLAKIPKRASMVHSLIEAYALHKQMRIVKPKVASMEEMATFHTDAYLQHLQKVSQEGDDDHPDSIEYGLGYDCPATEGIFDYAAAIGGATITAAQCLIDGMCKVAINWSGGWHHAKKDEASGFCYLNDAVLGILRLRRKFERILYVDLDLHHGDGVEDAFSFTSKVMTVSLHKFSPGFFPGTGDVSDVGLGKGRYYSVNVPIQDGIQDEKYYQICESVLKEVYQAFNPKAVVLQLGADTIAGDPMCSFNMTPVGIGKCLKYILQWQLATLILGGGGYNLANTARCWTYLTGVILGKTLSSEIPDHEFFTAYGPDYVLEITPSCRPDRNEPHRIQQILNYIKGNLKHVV
The data set can be described thus: Inhibition of full length recombinant human C-terminal His tagged HDAC8 expressed in baculovirus infected Sf9 insect cells using Ac-Leu-GlyLys (Tfa)-AMC as substrate preincubated for 5 mins followed by substrate addition and measured after 30 mins by fluorescence microtiter plate reader assay.

Another data set has as its target Histone deacetylase 1 (Homo sapiens, UniProt Q13547). The data set can be described thus: Inhibition of recombinant human HDAC1 expressed in baculovirus expression system using Ac-Leu-Gly-Lys (Ac)-AMC as substrate preincubated for 5 mins followed by substrate addition and measured after 30 mins by fluorescence microtiter plate reader assay.
Data set [2] is described as follows: Cytotoxicity against human Jurkat cells assessed as reduction in cell viability incubated for 72 hrs by CCK-8 assay. (In general: Tetrazolium assays rely on reduction of a dye to a coloured formazan, in cell work by metabolically active cells.)
Another data set concerns MCF7. The data set can be described thus: cells. The class given is functional, cell-based. The note with it: Homo sapiens, MCF7, 48 h.
The nature of data set [3]: Antiproliferative activity against human YCC-11 cells assessed as cell growth inhibition. It counts as functional, cell-based.
Data set [4] in a line: Antiproliferative activity against human YCC3/7 cells assessed as cell growth inhibition. The class given is functional, cell-based.
In a further data set the test system is A549. The data set can be described thus: cells. It counts as functional, cell-based. The note with it: Homo sapiens, A549, 48 h.
The subject of another data set is B16-F10. The data set can be described thus: cells. The class given is functional, cell-based. The note with it: Mus musculus, B16-F10, 48 h.
In another data set the test system is HCT-116. The data set can be described thus: cells. It counts as functional, cell-based. The note with it: Homo sapiens, HCT-116, 48 h.

Some results are limits rather than exact numbers.

Histone deacetylase 1, sequence (Q13547 whole entry): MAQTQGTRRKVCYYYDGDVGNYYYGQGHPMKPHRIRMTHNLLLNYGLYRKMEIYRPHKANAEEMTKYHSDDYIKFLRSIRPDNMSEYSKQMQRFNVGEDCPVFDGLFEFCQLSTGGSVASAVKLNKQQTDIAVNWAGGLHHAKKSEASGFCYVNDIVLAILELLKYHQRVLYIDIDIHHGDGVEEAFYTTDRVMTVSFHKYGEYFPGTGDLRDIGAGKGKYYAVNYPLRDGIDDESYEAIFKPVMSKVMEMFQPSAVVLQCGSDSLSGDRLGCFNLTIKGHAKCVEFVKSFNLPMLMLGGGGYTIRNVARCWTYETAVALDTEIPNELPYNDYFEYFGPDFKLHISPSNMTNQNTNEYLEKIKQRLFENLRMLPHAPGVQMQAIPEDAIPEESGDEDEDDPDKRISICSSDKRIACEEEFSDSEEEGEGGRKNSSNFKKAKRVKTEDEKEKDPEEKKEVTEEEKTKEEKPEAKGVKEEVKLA
Histone deacetylase 3, sequence (O15379 whole entry): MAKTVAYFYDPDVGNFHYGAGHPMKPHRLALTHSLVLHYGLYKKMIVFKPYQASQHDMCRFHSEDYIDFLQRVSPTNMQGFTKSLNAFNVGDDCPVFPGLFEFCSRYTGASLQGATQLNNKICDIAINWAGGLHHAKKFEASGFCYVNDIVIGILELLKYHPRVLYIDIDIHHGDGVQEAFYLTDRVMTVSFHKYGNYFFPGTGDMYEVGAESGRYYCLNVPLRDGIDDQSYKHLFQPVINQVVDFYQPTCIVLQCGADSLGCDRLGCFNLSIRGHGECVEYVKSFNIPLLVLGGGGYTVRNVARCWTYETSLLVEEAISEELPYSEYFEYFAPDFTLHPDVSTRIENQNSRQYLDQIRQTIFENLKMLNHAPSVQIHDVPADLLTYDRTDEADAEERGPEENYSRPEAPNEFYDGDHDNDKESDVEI
Description for A549: Antiproliferative activity against human A549 cells assessed as inhibition of cell proliferation measured after 48 hrs by MTT assay
Description for B16-F10: Antiproliferative activity against mouse B16-F10 cells assessed as inhibition of cell proliferation measured after 48 hrs by MTT assay
Description for HCT-116: Antiproliferative activity against human HCT-116 cells assessed as inhibition of cell proliferation measured after 48 hrs by MTT assay
Description for MCF7: Antiproliferative activity against human MCF7 cells assessed as inhibition of cell proliferation measured after 48 hrs by MTT assay

With `COc1cc(-c2ncc(C(=O)NCCCCCCC(=O)NO)s2)cc(OC)c1OC`, the IC50 (commonly the concentration that inhibits the measured activity by half) at Histone deacetylase was 670 nM; on Histone deacetylase 3, over 10000 nM; in data set [1] it was 800 nM.
As for `O=C(CCCCCCNC(=O)c1cnc(-c2ccc(OC(F)(F)F)cc2)s1)NO`, the figures for the IC50 (against Histone deacetylase; on Histone deacetylase 3; in data set [1]) were 700 nM, 8070 nM and 710 nM, respectively.
Turning to `COc1cccc(-c2ncc(C(=O)NCCCCCCC(=O)NO)s2)c1`, the IC50 at Histone deacetylase 8 worked out at 15200 nM; on Histone deacetylase 1, 3930 nM; at Histone deacetylase, 440 nM; on Histone deacetylase 3, 9270 nM; with MCF7, 1900 nM; in [1], 590 nM. Besides, the IC50 in [3] worked out at 1300 nM; in data set [4] it was 1560 nM; with A549, 6030 nM; in the data set on B16-F10, 3520 nM; with HCT-116 it was 930 nM. Moreover, the IC50 at 72 h in data set [2] is 330 nM.
On to `COc1cc(OC)cc(-c2ncc(C(=O)NCCCCCCC(=O)NO)s2)c1`, for which the values for the IC50 (on Histone deacetylase; at Histone deacetylase 3; in data set [1]) were 790 nM, 9090 nM and 760 nM, respectively.
Consider `COc1ccc(-c2ncc(C(=O)NCCCCCC(=O)NO)s2)c(OC)c1`, for which the IC50 at Histone deacetylase 8 is 19800 nM; on Histone deacetylase 1, 11200 nM; against Histone deacetylase it was 350 nM; on Histone deacetylase 3, 12400 nM; in the data set with MCF7 it was 2810 nM; in data set [1], 76 nM. The 50% inhibitory concentration (IC50) was 6520 nM in [3]; 8730 nM in [4]; 6710 nM in the data set with A549; 2940 nM with B16-F10; 2190 nM with HCT-116. For the same compound, the IC50 at 72 h in [2] worked out at 1720 nM.
For `O=C(/C=C/c1cnc(-c2ccc3c(c2)OCCO3)s1)NO`, the results for the IC50 (against Histone deacetylase; at Histone deacetylase 3; in [1]) were 680 nM, over 10000 nM and 770 nM, respectively.
The corresponding values for `O=C(/C=C/c1cnc(-c2ccc(N3CCOCC3)cc2)s1)NO` are 550 nM, over 10000 nM and 970 nM.
With `O=C(/C=C/c1cnc(-c2ccc3c(c2)OCO3)s1)NO`, the IC50 against Histone deacetylase was 890 nM.
Take `O=C(CCCCCCNC(=O)c1cnc(-c2ccc(Cl)cc2)s1)NO`: the IC50 against Histone deacetylase stood at 960 nM.
Turning to `COc1ccccc1-c1ncc(C(=O)NCCCCCCC(=O)NO)s1`, the IC50 at Histone deacetylase 8 amounted to 10200 nM; at Histone deacetylase 1, 5130 nM; against Histone deacetylase, 270 nM; on Histone deacetylase 3, 6490 nM; in the data set with MCF7 it was 1930 nM; in data set [1], 650 nM. The IC50 is 2690 nM in data set [3]; 6680 nM in data set [4]; 5040 nM in the data set on A549; over 10000 nM with B16-F10; 910 nM in the data set with HCT-116. Also, the IC50 at 72 h in data set [2] stood at 350 nM.
In the case of `COc1ccc(-c2ncc(C(=O)NCCCCC(=O)NO)s2)c(OC)c1`, the IC50 turned out to be 690 nM against Histone deacetylase, 9910 nM on Histone deacetylase 3 and 620 nM in data set [1].
At Histone deacetylase, `O=C(CCCCCCNC(=O)c1cnc(-c2ccc(Oc3ccccc3)cc2)s1)NO` displayed a half-maximal inhibitory concentration (IC50) of 800 nM.
In the case of `COc1ccc(-c2ncc(/C=C/C(=O)NO)s2)c(OC)c1OC`, the IC50 was 2560 nM at Histone deacetylase 8; 5030 nM at Histone deacetylase 1; 110 nM at Histone deacetylase; 6230 nM on Histone deacetylase 3; 4780 nM with MCF7; 1090 nM in data set [1]. Moreover, the IC50 was 3770 nM in data set [3]; 8170 nM in [4]; over 10000 nM with A549; over 10000 nM in the data set on B16-F10; 3270 nM in the data set on HCT-116. The IC50 at 72 h in [2] was determined as 590 nM.
In the case of `COc1cc(-c2ncc(/C=C/C(=O)Nc3ccccc3N)s2)cc(OC)c1OC`, the IC50 at Histone deacetylase 8 is 14200 nM; at Histone deacetylase 1, 9790 nM; at Histone deacetylase, 80 nM; at Histone deacetylase 3 it was 2980 nM; with MCF7, 2540 nM; in data set [1], 9330 nM. Further, the half-inhibitory concentration (IC50) is 1650 nM in data set [3]; 3030 nM in data set [4]; over 10000 nM in the data set on A549; 7620 nM in the data set with B16-F10; 1650 nM with HCT-116. In addition, in data set [2], the IC50 at 72 h worked out at 580 nM.
Regarding `COc1ccc(-c2ncc(/C=C/C(=O)Nc3ccccc3N)s2)cc1OC`, the IC50 at Histone deacetylase 8 was found to be 11500 nM; on Histone deacetylase 1, 10400 nM; against Histone deacetylase, 530 nM; at Histone deacetylase 3, 2220 nM; in the data set on MCF7, 3050 nM; in data set [1] it was 8810 nM. Also, the IC50 in data set [3] worked out at 4590 nM; in data set [4], 6280 nM; in the data set with A549 it was 5240 nM; in the data set on B16-F10, 6370 nM; in the data set on HCT-116 it was 1800 nM. Moreover, the IC50 at 72 h in [2] is 340 nM.
`COc1ccc(-c2ncc(C(=O)NCCCC(=O)NO)s2)c(OC)c1` gave an IC50 at Histone deacetylase of 730 nM.
As for `COc1ccc(-c2ncc(/C=C/C(=O)Nc3ccccc3N)s2)c(OC)c1OC`, the IC50 on Histone deacetylase is 630 nM; at Histone deacetylase 3 it was 1550 nM; in data set [1], over 10000 nM.
On the same counts, the results for `COc1ccc(-c2ncc(/C=C/C(=O)Nc3ccccc3N)s2)cc1` are 710 nM, 1790 nM and over 10000 nM.
In the case of `COc1cccc(-c2ncc(/C=C/C(=O)NO)s2)c1`, the IC50 against Histone deacetylase was 660 nM.
At Histone deacetylase, `Cc1cccc(-c2ncc(/C=C/C(=O)Nc3ccccc3N)s2)c1` yielded an IC50 of 810 nM.
For the compound `Nc1ccccc1NC(=O)c1ccc(CNC(=O)OCc2cccnc2)cc1` [ENTINOSTAT], the IC50 in data set [3] is 5530 nM; in data set [4], 12900 nM.
Turning to `O=C(CCCCCCNC(=O)c1cnc(-c2ccc(F)cc2)s1)NO`, the IC50 at Histone deacetylase is 1020 nM.
As for `Nc1ccccc1NC(=O)/C=C/c1cnc(-c2ccc3cc[nH]c3c2)s1`, the IC50 against Histone deacetylase was 630 nM; on Histone deacetylase 3, 2030 nM; in data set [1], over 10000 nM.
Turning to `COc1cc(OC)cc(-c2ncc(/C=C/C(=O)NO)s2)c1`, the IC50 against Histone deacetylase was 720 nM; on Histone deacetylase 3 it was over 10000 nM; in data set [1], 940 nM.
On the same counts, the results for `Cc1ccc(-c2ncc(/C=C/C(=O)Nc3ccccc3N)s2)cc1` are 660 nM, 1030 nM and over 10000 nM.
Turning to `O=C(/C=C/c1cnc(-c2ccc(F)cc2F)s1)NO`, on Histone deacetylase, the IC50 was 940 nM.
Turning to `COc1ccc(-c2ncc(C(=O)NCCCCCCC(=O)NO)s2)cc1`, the IC50 against Histone deacetylase is 710 nM; on Histone deacetylase 3, over 10000 nM; in [1] it was 610 nM.

Values taken from ChEMBL document CHEMBL5042524, “Discovery of Novel Histone Deacetylase 6 (HDAC6) Inhibitors with Enhanced Antitumor Immunity of Anti-PD-L1 Immunotherapy in Melanoma” (J Med Chem, 2022).
